# Patent US5886190A, “Rapid synthesis and use of 18F-fluoromisonidazole and analogs” (priority 1997, dated 1999)
# How the values were obtained:
# [1] = system: hypoxic elements within a tumor volume; details: 2 or more hours after injection; cited from earlier work
# [2] = system: mammary tumor; test: Autoradiographic studies in tumor-bearing rats; details: 1 hour postinjection
# Procedure: (§1) The synthesis scheme for [^18 F]FETNIM is depicted in FIG. 6. Biodistribution studies of [^18 F]FETNIM were performed at 1, 2 and 4 hours in mammary tumor-bearing rats (10 μCi, iv, N=3/time interval). Autoradiograms were performed at 1 hour postinjection of [^18 F]FETNIM, and a comparison has been made with [^18 F]fluoromisonidazole (FMISO). Intratumoral oxygen tension measurements were performed using the Eppendorf computerized histographic system. Twenty to twenty-five pO2 measurements along each of 2 to 3 linear tracks were performed at 0.4 mm intervals on each tumor. PET imaging studies of [^18 F]FETNIM were performed in rabbits bearing V2 tumors (N=3, 4 mCI, iv) which were located on the right leg.
# Female Fischer 344 mammary tumor-bearing rats (n=3) after receiving [^18 F]FETNIM (2 mCi, iv) were sacrificed at 1 h. […] The rats were sacrificed at 1 hour postinjection. The rat body was fixed in a carboxymethyl cellulose (4%) block. The frozen body in a block was mounted to a cryostat (LKB 2250 cryo-microtome, Ijamsville, Md.) and 40 μm coronal sections were made. The section was freeze dried, then mounted on a x-ray film (X-Omat AR, Kodak, Rochester, N.Y.) for 24 hours.
# [3] = system: nasalpharyngeal cancer (NPC); test: PET imaging of patients with nasalpharyngeal cancer; format: in vivo, human (patients); details: 10 mCi
# Procedure: PET imaging studies were performed on two patients with nasalpharyngeal cancer (NPC). […] After each patient had received 10 mCi of [^18 F]FMISO, eight consecutive 15-min scans were taken. […] Each patient was also administered [^18 F]FDG to ascertain the tumor region.
# [4] = format: in vivo, 70 Kg male (human)
# Description: The following Table summarizes the results of dosimetry calculation for radiation exposure to several […] tissues.
# Dosimetry: Normal Tissue Dosimetry for ^18 F-FMISO
# [5] = system: hypoxic elements within a tumor volume; test: Patient studies of ^18 F-FMISO uptake in tumors; details: in vivo
# Description: In patient studies, the hypoxic elements within a tumor volume was defined as regions with a threshold regional tumor to plasma (^18 F-FMISO) ratio of ≥1.4 by 2 or more hours after injection.
# [6] = system: intracellular nitroreductases; details: cited from earlier work
# [7] = system: hypoxic cells; test: Selectivity to hypoxic cells (PET imaging, autoradiograms, biodistribution); details: in vivo
# Procedure: as §1
# PET imaging was performed with a positron camera (Positron Corporation, Houston, Tex.). The tomograph has a field-of-view of 42 cm on transverse and 12 cm on coronal planes. The axial resolution on the reconstructed plane is 1.2 cm. […]
# Female Fischer 344 rats (250-275 g) (Harlan, Inc., Indianapolis, Ind.) were inoculated with mammary tumor cells in the lumbar area using a 13762 tumor cell line (s.c. 10^5 cells/rat). […] The tissues were excised, weighed and counted for radioactivity. The percent of injected dose per gram of tissue weight was determined.
# [8] = system: hypoxic cells; details: radiobiologically significant oxygen levels; cited from earlier work
# [9] = system: rats; details: 2 mCi/Kg single dose; n=3; follow-up 5 days
# Procedure: In addition, animal acute toxicity studies have been performed, rats (n=3) were administered 2 mCi/Kg as a single dose.
smiles,measurement,setting,value
"O=[N+]([O-])c1nccn1CC(O)C[18F] (stereo not shown) [[^18 F]FMISO, 3-[^18 F]Fluoro-1-(2'-nitro-1'-imidazoyl)-2-propanol]",Threshold regional tumor to plasma ratio defining hypoxic elements,[1],≥ 1.4
same,Uptake in intestines and colon,[2],high uptake
same,Differentiation of hypoxic versus necrotic regions in the tumor,[2]; autoradiogram,could differentiate hypoxic versus necrotic regions in the tumor
same,Detection of hypoxic tumors by PET,[3],able to detect primary or metastatic hypoxic tumors
same,"PET tumor uptake, first patient",[3]; first patient,showed tumor uptake in the lymph node region
same,"PET finding, second patient",[3]; second patient,the recurrent primary tumor is hypoxic
same,Bladder wall dose relative to muscle dose,"[4]; 70 Kg male, 0.1 mCi/Kg",about five times as much
same,Liver and kidney dose relative to muscle dose,"[4]; 70 Kg male, 0.1 mCi/Kg",nearly twice the muscle dose
same,Total body musculature dose in a routine study,"[4]; 70 Kg male, 0.1 mCi/Kg",120 mrem
same,"Normal tissue dose, bladder","[4]; bladder, 7 mCi/70 Kg, n = 2",570 mrad
same,"Normal tissue dosimetry, bladder","[4]; bladder, ± SD",81.5 ± 47 mrad/mCi
same,"Normal tissue dose, kidney","[4]; kidney, 7 mCi/70 Kg, n = 3",180 mrad
same,"Normal tissue dosimetry, kidney","[4]; kidney, ± SD",25.8 ± 5.5 mrad/mCi
same,"Normal tissue dose, liver","[4]; liver, 7 mCi/70 Kg, n = 3",190 mrad
same,"Normal tissue dosimetry, liver","[4]; liver, ± SD",26.8 ± 9.7 mrad/mCi
same,"Normal tissue dose, muscle","[4]; muscle, 7 mCi/70 Kg, n = 6",120 mrad
same,"Normal tissue dosimetry, muscle","[4]; muscle, ± SD",16.8 ± 7.9 mrad/mCi
same,Feasibility of detecting hypoxia in human head and neck tumors,[5],feasibility of using ^18 F-FMISO to detect hypoxia in human head and neck tumors
same,Metabolism,[6],metabolized by intracellular nitroreductases
same,Selectivity to hypoxic cells,[7],selective to hypoxic cells
same,Selective binding to hypoxic cells,[8],bind selectively to hypoxic cells in vitro and in vivo
same,Acute toxicity,[9],All rats tolerated this dose without toxicity
